# Marks after values point to notes of the source that are not given here.
# Columns and labels:
# [1] = test system: LLC tumors; assay: Antitumor effect in LLC-bearing mice (tumor volume, relative tumor volume, T/C, tumor coefficient, tumor growth inhibition rate); type: in vivo, C57 mice
# Description: Tumor volume measurement: […] Relative tumor volume (RTV)=TVt/TV0, where TV0 is the tumor volume at the time of administration, and TVt is the tumor volume at each measurement. Relative tumor growth rate T/C (%)=TRTV/CRTV×100%, where TRTV is the RTV for the treatment group and CRTV is the RTV for the control group. Tumor growth inhibition rate (%)=(model control group tumor weight−treatment group tumor weight)/model control group tumor weight×100%.
# [2] = test system: 4T1 breast cancer cells; assay: Antitumor effect in 4T1 breast tumor-bearing mice (tumor volume, relative tumor growth inhibition rate, tumor index, tumor growth inhibition rate); type: in vivo, BALB/c mice
# Method: Longest and shortest diameters of tumors were measured every three days to calculate tumor volume, and mouse weights were recorded every three days. At the end of the experiment, tumors, spleens, and thymuses were harvested and weighed to calculate tumor, spleen, and thymus indices. […] Where TRTV is the relative tumor volume in the experimental group, and CRTV is the relative tumor volume in the model control group. Relative tumor volume (RTV)=Vt/V0, where Vt is the tumor volume on day t of dosing, and V0 is the tumor volume at the time of grouping. Evaluation criteria: […] Where T represents the average tumor weight in the treatment group, and C represents the average tumor weight in the model control group. Evaluation criteria: […]
# [3] = Mortality and body weight of LLC-bearing mice
# Method: (§1) LLC cells in logarithmic growth phase at 1×10^7/mL were inoculated at 0.2 mL into the right axilla of 10 purchased normal male C57 mice. Tumor growth was monitored, and tumor-bearing mice were prepared. Once the tumor volume in tumor-bearing mice exceeded 200 mm^3, the tumor tissue was aseptically harvested to prepare a tissue cell suspension. This was mixed at a 1:1 (V:V) ratio with culture medium to create a tumor tissue homogenate. This homogenate was injected into the right axilla of 60 male C57 mice at 0.2 mL per mouse. When the tumor volume in these tumor-bearing mice exceeded 100 mm^3, mice with well-grown tumors without ulceration were selected and randomized into groups based on tumor volume as follows: model control group, cisplatin group (4 mg/kg), Kanglaite soft capsule group (1,404 mg/kg), cisplatin+Kanglaite soft capsule group (4+1,404 mg/kg), cisplatin+GLP-4 low-dose group (4+130 mg/kg), and cisplatin+GLP-4 high-dose group (4+1,170 mg/kg), with 8 mice per group. Additionally, 8 mice were selected as a normal control group. The cisplatin group received intraperitoneal injections of cisplatin, and the other groups were administered their respective drug solutions by gavage (20 mL/kg) or intraperitoneal injection (10 mL/kg), once daily for 27 consecutive days. After the last dose, blood was collected from the orbital plexus to test blood WBC, RBC, liver and kidney function indicators (ALT, AST, BUN, CRE), and CD3^+, CD4^+, and CD8^+ levels. Bone marrow smears were examined, and spleens, thymuses, and tumors were weighed. Histopathological examinations were conducted on the tumor, spleen, stomach, and kidneys.
# Evaluation of quality of life and survival time in animals: Throughout the experimental process, detailed records were kept for each group of animals regarding weight, mortality, mental state, fur color, smoothness of fur, and fecal form, including incidences of diarrhea (if any).
# [4] = set-up: species or system C57 mice; settings: mouse, in vivo, 130 mg/kg
# Method: Spleen and thymus organ coefficients: After the last dose, spleen, thymus, and tumor weights are measured, and organ coefficients are calculated. organ coefficient (%)=organ weight/fasting body weight×100%.
# [5] = test system: CD4+ and CD8+ lymphocyte subtypes; assay: Blood CD3+/CD4+ and CD3+/CD8+ by flow cytometry in LLC-bearing mice; type: in vivo, C57 mice; settings: blood after last dose, cisplatin 4, Kanglaite 1404, GLP-4 low-dose 130 mg/kg
# Method: as §1, with “After the last dose, blood was collected from the orbital plexus to test blood WBC, RBC, liver and kidney function indicators (ALT, AST, BUN, CRE), and CD3^+, CD4^+, and CD8^+ levels. Bone marrow smears were examined, and spleens, thymuses, and tumors were weighed. Histopathological examinations were conducted on the tumor, spleen, stomach, and kidneys.” left out
# [6] = Mortality, survival time and body weight of H22-bearing mice; type: in vivo, C57 mice
# Method: A homogenate suspension of H22 hepatoma solid tumors was injected subcutaneously under the axilla of 60 healthy male C57 mice to create a solid tumor model. Once all mouse tumors averaged a volume of about 180 mm^3, mice were randomized into groups based on tumor volume and were administered the respective drugs or drug solvents via oral gavage or intraperitoneal injection for 27 consecutive days. Longest and shortest diameters of tumors were measured every three days to calculate tumor volume, and mouse weights were recorded every three days. At the end of the experiment, tumors, spleens, and thymuses were harvested and weighed to calculate tumor, spleen, and thymus indices.
# [7] = D1, cisplatin 4, Kanglaite 1404, GLP-4 low-dose 130 mg/kg
# [8] = D4, cisplatin 4, Kanglaite 1404, GLP-4 low-dose 130 mg/kg
# [9] = D7, cisplatin 4, Kanglaite 1404, GLP-4 low-dose 130 mg/kg
# [10] = D10, cisplatin 4, Kanglaite 1404, GLP-4 low-dose 130 mg/kg
# [11] = D13, cisplatin 4, Kanglaite 1404, GLP-4 low-dose 130 mg/kg
# [12] = D16, cisplatin 4, Kanglaite 1404, GLP-4 low-dose 130 mg/kg
# [13] = D19, cisplatin 4, Kanglaite 1404, GLP-4 low-dose 130 mg/kg
# [14] = D22, cisplatin 4, Kanglaite 1404, GLP-4 low-dose 130 mg/kg
# [15] = D25, cisplatin 4, Kanglaite 1404, GLP-4 low-dose 130 mg/kg
# [16] = 8 per group, cisplatin 4, Kanglaite 1404, GLP-4 low-dose 130 mg/kg
smiles,measurement,setting,value
"N.N.[Cl][Pt][Cl] [Cisplatin, cisplatin]",Tumor volume,[1]; [7],94.99 ± 11.16
same,Relative tumor growth rate (T/C),[1]; [8],81.4%
same,Relative tumor volume,[1]; [8],1.84
same,Tumor volume,[1]; [8],150.58 ± 34.35
same,Relative tumor growth rate (T/C),[1]; [9],45.5%
same,Relative tumor volume,[1]; [9],0.10
same,Relative tumor growth rate (T/C),[1]; [10],27.3%
same,Relative tumor volume,[1]; [10],0.09
same,Relative tumor growth rate (T/C),[1]; [11],70.2%
same,Relative tumor volume,[1]; [11],0.40
same,Tumor volume,[1]; [11],27.36 ± 24.4
same,Relative tumor growth rate (T/C),[1]; [12],28.2%
same,Relative tumor volume,[1]; [12],0.51
same,Relative tumor growth rate (T/C),[1]; [13],36.9%
same,Relative tumor volume,[1]; [13],0.97
same,Relative tumor growth rate (T/C),[1]; [14],30.9%
same,Relative tumor volume,[1]; [14],10.62
same,Relative tumor growth rate (T/C),[1]; [15],23.6%
same,Relative tumor volume,[1]; [15],12.10
same,Tumor coefficient,"[1]; after last dose, cisplatin 4, Kanglaite 1404, GLP-4 low-dose 130 mg/kg",7.528 ± 2.567 ^ %
same,Tumor growth inhibition rate,"[1]; tumor weight vs model control, cisplatin 4, Kanglaite 1404, GLP-4 low-dose 130 mg/kg",61.6%
same,Tumor volume,"[2]; D0, cisplatin 4 mg/kg",225.3 ± 65.4 mm^3
same,Relative tumor growth inhibition rate (compared to model control group),"[2]; D3, cisplatin 4 mg/kg",17.2%
same,Relative tumor growth inhibition rate (compared to model control group),"[2]; D6, cisplatin 4 mg/kg",43.5* %
same,Relative tumor growth inhibition rate compared to the model control group,"[2]; D6 to D25, cisplatin 4, GLP-4 low-dose 130 mg/kg",over 40%
same,Relative tumor growth inhibition rate (compared to model control group),"[2]; D9, cisplatin 4 mg/kg",49.1* %
same,Relative tumor growth inhibition rate (compared to model control group),"[2]; D12, cisplatin 4 mg/kg",55.7* %
same,Relative tumor growth inhibition rate (compared to model control group),"[2]; D15, cisplatin 4 mg/kg",56.9* %
same,Relative tumor growth inhibition rate (compared to model control group),"[2]; D19, cisplatin 4 mg/kg",48.8* %
same,Relative tumor growth inhibition rate (compared to model control group),"[2]; D22, cisplatin 4 mg/kg",44.1* %
same,Relative tumor growth inhibition rate (compared to model control group),"[2]; D25, cisplatin 4 mg/kg",42.1* %
same,Tumor volume,"[2]; D25, cisplatin 4 mg/kg",2026.4 ± 707^ mm^3
same,Tumor growth inhibition rate (%) vs. the model control group,[2]; cisplatin 4 mg/kg,29.6%
same,Tumor index,[2]; cisplatin 4 mg/kg,11.5 ± 3.3%
same,Peak relative tumor growth inhibition rate compared to the model control group,"[2]; cisplatin 4, GLP-4 low-dose 130 mg/kg",56.9%
same,Tumor growth inhibition rate compared to the model control group,"[2]; tumor weight, cisplatin 4, GLP-4 low-dose 130 mg/kg",29.6%
same,Number of deaths,[3]; [16],0
same,Number of surviving animals,[3]; [16],8
same,Weight,[3]; [7],14.1 ± 0.7 g
same,Weight,[3]; [8],14.5 ± 1.1 g
same,Mortality rate,"[3]; cisplatin 4, Kanglaite 1404, GLP-4 low-dose 130 mg/kg",0%
same,Spleen coefficient,[4],0.456 ± 0.102 ^ %
same,Thymus coefficient,[4],0.044 ± 0.020 %
same,CD3+/CD4+,[5],0.093 ± 0.025
same,CD3+/CD8+,[5],1.571 ± 0.406
same,Number of deaths,"[6]; 8 per group, cisplatin 3, GLP-4 low-dose 50 mg/kg",0
same,Survival time,"[6]; 27 days dosing, cisplatin 3, GLP-4 low-dose 50 mg/kg",27 ± 0 days
same,Weight,"[6]; D0, cisplatin 3, GLP-4 low-dose 50 mg/kg",22.8 ± 1^+ g
same,Weight,"[6]; D9, cisplatin 3, GLP-4 low-dose 50 mg/kg",22.2 ± 0.7^+ g
same,Weight,"[6]; D12, cisplatin 3, GLP-4 low-dose 50 mg/kg",21.9 ± 0.5^+ g
same,Weight,"[6]; D15, cisplatin 3, GLP-4 low-dose 50 mg/kg",21.3 ± 1*^+ g
same,Mortality rate,"[6]; cisplatin 3, GLP-4 low-dose 50 mg/kg",0%
